Residue numbers refer to the chain shown, from its start. Read-outs that look alike come from different tables or passages of the source.

Experimental findings from PMC5054527, “Mechanism of high affinity inhibition of the human urate transporter URAT1” (Scientific Reports, 2016) are described below.

Common to all, as to experiment: URAT1 uric acid transport activity assay
What all share (format): cell-based

The target of experiment [1] is T1, r-V22M rURAT1 point mutant (Rattus norvegicus, UniProt Q3ZAV1, V22M).
T1 sequence (Q3ZAV1 1-553 V22M): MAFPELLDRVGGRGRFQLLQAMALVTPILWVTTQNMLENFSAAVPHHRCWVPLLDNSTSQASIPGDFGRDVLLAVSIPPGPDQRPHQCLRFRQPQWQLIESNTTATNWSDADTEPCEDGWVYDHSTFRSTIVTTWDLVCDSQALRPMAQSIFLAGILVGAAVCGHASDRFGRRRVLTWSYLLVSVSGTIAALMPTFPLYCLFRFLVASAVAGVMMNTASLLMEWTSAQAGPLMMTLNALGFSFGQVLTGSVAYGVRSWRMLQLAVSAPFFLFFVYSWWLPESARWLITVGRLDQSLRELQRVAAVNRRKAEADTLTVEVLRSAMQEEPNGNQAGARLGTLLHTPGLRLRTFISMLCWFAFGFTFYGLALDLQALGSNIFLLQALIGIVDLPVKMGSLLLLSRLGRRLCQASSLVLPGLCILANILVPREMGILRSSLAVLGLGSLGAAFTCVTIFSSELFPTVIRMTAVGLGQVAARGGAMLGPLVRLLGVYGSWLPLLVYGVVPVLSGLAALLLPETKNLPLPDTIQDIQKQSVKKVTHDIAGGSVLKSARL
The source says:
(§1) hURAT1 (GenBank BC053348.1) and rURAT1 (NCBI NM_001034943.1) genes were purchased from Origene Technologies, Inc. and subcloned into pCMV6/neo using NotI, creating pCMV6/neo-hURAT1 and pCMV6/neo-rURAT1. Mutants were produced by polymerase chain reaction (PCR) or site-directed mutagenesis using the QuikChange Lightning Multi Site-Directed Mutagenesis Kit (Agilent Technologies). […] Detailed methods are provided in Supplementary Methods, and primers are listed in Supplementary Table 1. […] Residues in rURAT1 and hOAT1 that correspond to the residues in hURAT1 were identified from aligned protein sequences (Supplementary Fig. 1)[50].
(§2) DNA (10 μg) was mixed with 30 μl of DreamFect Gold (Boca Scientific) in 2 ml OptiMem (Life Technologies). After 20 minutes, 18 ml of media containing 2 × 10^7 cells in suspension was added and mixed, and 200 μl per well were plated onto white clear-bottomed poly-D-lysine coated 96-well plates (BD Biosciences). The cells were assayed the following day.
(§3) Compounds were serially diluted into assay buffer and added to the cells for 5 minutes prior to addition of radiolabelled uric acid substrate. URAT1-expressing cells were incubated with 100 μM ^14C-uric acid for 10 minutes. […] Each treatment was measured in triplicate.
(§4) Unlabelled uric acid was prepared at a 20 mM stock just prior to use in a solution containing 20 mM dibasic potassium phosphate and 20 mM potassium hydroxide.
(§5) Nonlinear regression analyses using GraphPad Prism software were used to calculate the potency of URAT1 inhibitors (IC50 values) from log (inhibitor) versus response - variable slope (four parameters) equations. Statistical significance was assessed using Student’s unpaired t-tests.

Experiment [2] has as its target T2, r-L29M rURAT1 point mutant (Rattus norvegicus, UniProt Q3ZAV1, L29M).
T2 sequence (Q3ZAV1 1-553 L29M): T1 sequence (Q3ZAV1 1-553 V22M) with M22V, L29M
Excerpt: as §1, §2, §3, §4, §5

Experiment [3] deals with T3, r-M354T rURAT1 point mutant (Rattus norvegicus, UniProt Q3ZAV1, M354T).
T3 construct: expressed in transfected cells; host or cells: HEK-293T
T3 sequence (Q3ZAV1 1-553 M354T): T1 sequence (Q3ZAV1 1-553 V22M) with M22V, M354T
Excerpt: as §1, §2, §3, §4, §5

Regarding `CCc1oc2ccccc2c1C(=O)c1cc(Br)c(O)c(Br)c1` [benzbromarone], the IC50 (commonly the concentration that gives 50% inhibition) stood at 20 ± 2.7 µM in experiment [1], 21 ± 3.3 µM in experiment [2] and 18 ± 1.7 µM in experiment [3].

In the case of `O=C(O)CSc1nnc(Br)n1-c1ccc(C2CC2)c2ccccc12` [lesinurad, 2-((5-bromo-4-(4-cyclopropylnaphthalen-1-yl)-4H-1,2,4-triazol-3-yl)thio)acetic acid], the half-maximal inhibitory concentration (IC50) in experiment [1] (r-V22M, MES pH 5.5, 100 μM 14C-uric acid, read-out: IC50 (uric acid transport)) came to 74 ± 8.9 µM; in experiment [2] (r-L29M, MES pH 5.5, 100 μM 14C-uric acid, read-out: IC50 (uric acid transport)), 77 ± 6.6 µM; in experiment [3] (r-M354T, MES pH 5.5, 100 μM 14C-uric acid, read-out: IC50 (uric acid transport)) it was 56 ± 4.9 µM.

As to `O=C1C(CC[S+]([O-])c2ccccc2)C(=O)N(c2ccccc2)N1c1ccccc1` (stereo not drawn) [sulfinpyrazone], the IC50 in experiment [1] (r-V22M, HEPES pH 7.3, 100 μM 14C-uric acid, read-out: IC50 (uric acid transport)) was 762 ± 177 µM; in experiment [2] (r-L29M, HEPES pH 7.3, 100 μM 14C-uric acid, read-out: IC50 (uric acid transport)), 495 ± 152 µM; in experiment [3] (r-M354T, HEPES pH 7.3, 100 μM 14C-uric acid, read-out: IC50 (uric acid transport)) it was 304 ± 38 µM.
